We go through eight molecules from PubChem BioAssay (NCI).

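Tested at 5 concentrations; 48 h exposure; 96-well plates; endpoints linearly interpolated, else capped at highest concentration. TGI denotes the concentration required for complete inhibition of growth.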 Where only a bound is given, the exact number is not on record here.

Some test systems named below: HL-60(TB) leukemia; OVCAR-8 ovarian; SK-MEL-5 melanoma; TK-10 renal; LOX IMVI melanoma; MCF7 breast; MDA-N; SR leukemia; HCC-2998 colon; HCT-116 colon; HOP-62 NSCLC; COLO 205 colon; SW-620 colon; A549 NSCLC; NCI-H23 lung; ACHN renal; OVCAR-5 ovarian.
Holding throughout (experiment): NCI tumour cell line growth inhibition, 48 h

Consider `COC(=O)c1ccc(CCC2=CC(=O)C=CC2=O)cc1`, for which the TGI stood at 4.79 µM in the experiment with HL-60(TB) leukemia; 50.7 µM in the experiment with OVCAR-8 ovarian; 30.2 µM with SK-MEL-5 melanoma; 33 µM with TK-10 renal; 24.2 µM in the experiment on LOX IMVI melanoma; 30 µM in the experiment with MCF7 breast. Also, the TGI with MDA-N is 27.6 µM; in the experiment on SR leukemia it was 5.82 µM; in the experiment on HCC-2998 colon it was 30.8 µM; with HCT-116 colon, 25.9 µM; with HOP-62 NSCLC, 39.3 µM; in the experiment on COLO 205 colon, 26.6 µM. In addition, the TGI was determined as 26.2 µM with SW-620 colon; 60.5 µM with A549 NSCLC; 39.4 µM in the experiment with NCI-H23 lung; 20.4 µM with ACHN renal; 33.8 µM with OVCAR-5 ovarian.
For the molecule `O=c1oc2ccccc2c(-c2ccc(O)cc2)c1Oc1ccccc1`, the TGI is over 100 µM in the experiment on HL-60(TB) leukemia; over 31.6 µM in the experiment on OVCAR-8 ovarian; 41.2 µM in the experiment with SK-MEL-5 melanoma; over 96.7 µM in the experiment on TK-10 renal; over 31.6 µM with LOX IMVI melanoma; over 100 µM in the experiment on MCF7 breast. Also, the TGI in the experiment on MDA-N is 58.5 µM; in the experiment on SR leukemia, over 100 µM; in the experiment on HCC-2998 colon, 19.8 µM; in the experiment on HCT-116 colon, over 87.9 µM; with HOP-62 NSCLC, over 100 µM; in the experiment with COLO 205 colon it was over 69.6 µM. Besides, the TGI is over 100 µM in the experiment on SW-620 colon; over 66.9 µM with A549 NSCLC; 18.7 µM with NCI-H23 lung; over 100 µM in the experiment with ACHN renal; 70 µM in the experiment with OVCAR-5 ovarian.
With `O=C1CSC(c2cc3cc(Br)ccc3nc2Cl)N1c1ccc(Cl)cc1` (stereo not given), the TGI in the experiment with HL-60(TB) leukemia was 55.7 µM; with OVCAR-8 ovarian it was over 100 µM; with SK-MEL-5 melanoma, 37.9 µM; in the experiment on TK-10 renal, 70.7 µM; with LOX IMVI melanoma, 33.7 µM; with MCF7 breast it was 67.6 µM. Moreover, the TGI was over 100 µM with MDA-N; 44.8 µM in the experiment on SR leukemia; 41.7 µM in the experiment on HCC-2998 colon; 77 µM with HCT-116 colon; over 100 µM with HOP-62 NSCLC; 41.2 µM with COLO 205 colon. Moreover, the TGI in the experiment on SW-620 colon, with A549 NSCLC, with NCI-H23 lung, in the experiment on ACHN renal and in the experiment on OVCAR-5 ovarian was over 100 µM throughout.
Take `N/C(CCSCCSCC/C(N)=N\O)=N\O`: the TGI in the experiment with HL-60(TB) leukemia, in the experiment with SK-MEL-5 melanoma, in the experiment on TK-10 renal, in the experiment with LOX IMVI melanoma, with MCF7 breast and in the experiment on MDA-N was over 100 µM each time. The TGI with SR leukemia, in the experiment with HCC-2998 colon, in the experiment with HCT-116 colon, with HOP-62 NSCLC, in the experiment with COLO 205 colon and with SW-620 colon was over 100 µM throughout. The TGI with A549 NSCLC, with NCI-H23 lung, in the experiment on ACHN renal and in the experiment with OVCAR-5 ovarian was over 100 µM each time.
In the case of `N#CC1=C(S)N(C2OC(CO)C(O)C(O)C2O)C(c2ccccc2)=CC1c1ccco1` (stereo not given), the TGI is over 100 µM in the experiment with HL-60(TB) leukemia; over 100 µM in the experiment on OVCAR-8 ovarian; over 100 µM in the experiment with SK-MEL-5 melanoma; over 100 µM in the experiment on TK-10 renal; 93 µM with LOX IMVI melanoma; over 100 µM in the experiment on MCF7 breast. Besides, the TGI in the experiment with MDA-N, with SR leukemia, in the experiment with HCC-2998 colon, with HCT-116 colon, with HOP-62 NSCLC and in the experiment with A549 NSCLC was over 100 µM throughout. Moreover, the TGI in the experiment on NCI-H23 lung and with OVCAR-5 ovarian was over 100 µM each time.
On to `O=C(/C=C/c1ccccc1)CCN1CCCCC1`, for which the TGI with HL-60(TB) leukemia is over 100 µM; in the experiment on OVCAR-8 ovarian it was 38.4 µM; in the experiment on SK-MEL-5 melanoma, over 100 µM; in the experiment with TK-10 renal, over 100 µM; with LOX IMVI melanoma, 37.6 µM; in the experiment with MCF7 breast it was 89.9 µM. Besides, the TGI in the experiment with MDA-N was 60.1 µM; in the experiment with SR leukemia, over 100 µM; in the experiment on HCC-2998 colon, over 100 µM; in the experiment with HCT-116 colon it was 32.1 µM; in the experiment on HOP-62 NSCLC, over 100 µM; in the experiment on COLO 205 colon it was 38.4 µM. Moreover, the TGI in the experiment with SW-620 colon is 41.6 µM; in the experiment on A549 NSCLC it was over 100 µM; in the experiment with NCI-H23 lung, 89.8 µM; in the experiment with ACHN renal, over 100 µM; in the experiment on OVCAR-5 ovarian, over 100 µM.
Regarding `O=C(OC1OC2COC(=O)c3cc(O)c(O)c(O)c3-c3c(cc(O)c(O)c3O)C(=O)OC3C2OC(=O)[C@@]24CC(=O)[C@@](O)(OC25C(=O)O[C@H]2[C@@H](O)CO[C@@]25O)C2(O)Oc5c(O)c(O)cc(c5C24)C(=O)OC13)c1cc(O)c(O)c(O)c1` (stereo not given in full), the TGI with HL-60(TB) leukemia is 92.3 µM; in the experiment on OVCAR-8 ovarian it was over 100 µM; with SK-MEL-5 melanoma, over 100 µM; in the experiment with LOX IMVI melanoma it was 25.1 µM; in the experiment with MCF7 breast it was 29.1 µM; in the experiment on MDA-N, over 100 µM. Moreover, the TGI was 94.6 µM in the experiment with SR leukemia; over 100 µM in the experiment with HCC-2998 colon; over 100 µM with HCT-116 colon; over 100 µM in the experiment on HOP-62 NSCLC; over 100 µM with COLO 205 colon; over 100 µM with SW-620 colon. Further, the TGI with A549 NSCLC, with NCI-H23 lung, in the experiment with ACHN renal and with OVCAR-5 ovarian was over 100 µM in each case.
Regarding `O=C1/C(=C/c2ccc(Br)s2)NC(=S)N1CN1CCCCC1`, the TGI with HL-60(TB) leukemia is 50 µM; with OVCAR-8 ovarian, over 100 µM; with SK-MEL-5 melanoma, 23.8 µM; in the experiment on TK-10 renal, over 100 µM; in the experiment on LOX IMVI melanoma, 52 µM; in the experiment with MCF7 breast, 57.8 µM. Also, the TGI was over 100 µM with MDA-N; 47.1 µM with SR leukemia; over 100 µM with HCC-2998 colon; over 100 µM in the experiment on HCT-116 colon; over 100 µM in the experiment on HOP-62 NSCLC; 37.2 µM in the experiment on COLO 205 colon. The TGI with SW-620 colon, in the experiment on NCI-H23 lung, with ACHN renal and in the experiment with OVCAR-5 ovarian was over 100 µM in each case.
